Data set [1] deals with A549 cells. As to the kind of experiment: Cell viability (MTT) assay, A549. The format is cell-based, human. Particulars: 72 h. As to the method: The antiproliferative activity of the synthesized compounds was tested in cell viability assays optimally set up for various cancer cell lines (results are depicted in Table 2, n = 3, average IC50 (μM) ± SD).
Cells were plated at a density of 5 × 10^3 cells per well on 96-well plates. After 24 h of incubation (37 °C, 5% CO2), the cell medium was removed, and compounds were added at selected concentrations (0.1–100 μM), followed by incubation for 72 h. Control cells were treated with 0.4% DMSO medium to match the conditions in the wells where drugs were added. After 72 h, the medium was removed, and the 3-(4,5-dimethylthiazol-2-yl)-2,5-diphenyltetrazolium bromide (MTT) solution (0.3 mg/mL in PBS) was added to cells for 3 h under no light conditions. The MTT solution was removed, and the formazan crystals were dissolved in 100 μL of DMSO. The optical density was measured at 570 nm with a reference wavelength of 690 nm using an absorbance microplate reader (SpectraMax 190, Molecular Devices, Sunnyvale, CA, USA). The half-maximal inhibitory concentration (IC50) was calculated based on a four-parameter logistic equation, generating a cell viability curve, using GraphPad Prism 6.01 (GraphPad Software, Inc.). […] The resulting absorbance values were used instead of IC50 calculation. […]

For data set [2], the system named is SKBR3 cells. As to the kind of experiment: Cell uptake / intracellular concentration by LC-MS/MS, SKBR3. The note with it: SKBR3, 24 h incubation with 10 μM. Type of data set: in vitro ADME, human. As to the method:
(§1) Therefore, in order to better comprehend the observed activities of our degraders, following incubation of each compound with cells, the intracellular concentrations of the synthesized derivatives were evaluated in different cancer cell lines, as described previously.[28],[29] SKBR3, PC3, or A549 cells were incubated with PROTACs (at a 10 μΜ concentration) for selected time points, respectively. Upon sample treatment, compounds were extracted and analyzed by LC-MS/MS. Table 1 presents the percentage of the molecule that enters the cells after 24 h incubation at the 10 μM concentration. […] The small molecule MYCi361, used as a binding domain component of MYC, was also evaluated in the cell uptake assay (Table 1).
Cells were plated in 24-well plates at a density of 2 × 10^5 cells/well. 24 h after seeding, cells were incubated with each PROTAC (10 μΜ) for certain time points (1 h, 4 h, 8 h, and 24 h). The incubations were terminated at the selected time points by removing the medium and washing the cells twice with 1 mL cold PBS (1×) in each well in order to remove unbound PROTAC. Subsequently, the cells were lysed by adding a cold solution of ACN:H2O (3:2) and scraping off the cell monolayer. This process was done in two steps: first, 200 μL of ACN:H2O was added, the cells were scraped, and the cell lysate was collected. The second step involved the addition of an extra 100 μL of ACN:H2O, scraping, and collection of the remaining lysate. Samples were subsequently vortexed, sonicated, and centrifuged for 10 min at 13 000 rpm. The supernatants were collected, evaporated for 1 h at 55 °C, and stored at −20 °C until the day of analysis. Samples were then reconstituted in 200 μL of initial mobile phase (100% A), and the intracellular accumulation of PROTACs was determined by LC-MS/MS analysis using Warfarin as a stable internal standard and PROTAC standards for the construction of analytical standard curves.
(§2) The percentage of cell uptake was calculated as follows: [drawing 1]

Data set [3] in a line: Stability of PROTACs in cell medium (DMEM), LC-MS/MS. Type of data set: physicochemical. The note with it: 72 h at 37 °C, 5 μM in DMEM (10% FBS). The protocol:
The stability of selected molecules, such as CSI86, was studied in cell medium over a time frame of 72 h at 37 °C.
The stability of most compounds, including CSI86 PROTAC, was evaluated in DMEM. The drug was prepared at a concentration of 5 μM in DMEM (10% FBS, 1% pen/strep) and aliquoted at approximately 200 μL per Eppendorf. The samples were collected at appropriate time points (0, 1 h, 2 h, 4 h, 8 h, 24 h, 48 h, and 72 h) and stored at −80 °C. On the day of the LC-MS/MS analysis, samples were prepared (50 μL drug in DMEM + 50 μL ACN:H2O + 50 μL IS + 100 μL cold ACN), vortexed, sonicated, and centrifuged at 13 000 rpm for 15 min. Then, samples were transferred into glass tubes, diluted in the initial mobile phase (20% Α – 80% Β), centrifuged for 1 min, and added to a 96-well plate for the LC-MS/MS analysis.

For data set [4], the system named is MYC:MAX complex. As to the kind of experiment: In vitro MYC-MAX binding assay (GST pull-down). Particulars: compound 150 μM. The format is biochemical. The protocol: To assess whether the new degraders affect direct interaction of MYC with MAX, we employed a pull-down approach using recombinant proteins that correspond to the bHLHZ regions of MYC and MAX. GST-MYC, bound to glutathione sepharose beads, was incubated with the pyrazole compounds, followed by incubation with His-MAX. Finally, the complex of GST-MYC/HisMAX was eluted by the addition of excess glutathione, while the amount of the eluted complex was assessed by western blotting using anti-MAX antibodies (Figure 5).
Figure 5 Inhibition of the formation of the MYC:MAX complex by the pyrazole compounds. The indicated compounds (150 μM), or the solvent alone (DMSO, used as a control), were incubated with GST-MYC containing glutathione beads for 10 min at […], followed by incubation with His-MAX. […] The complex of GST-MYC:His-MAX was eluted by incubation of the beads with free glutathione. The amount of the eluted complex was analyzed by western blotting (presented in the inset), using anti-MAX antibodies, while the protein bands were quantified with the ImageJ software. The intensity of the bands is presented in the bar graph. […] Statistics were based on the unpaired two-tailed student’s t-test. Data are shown as mean ± SEM.
MYC–MAX complex formation assays were performed using recombinantly produced GST-MYC and His-MAX proteins, following the glutathione GST pull-down principle (Lentzaris et al., in preparation). In this assay, recombinant GST-MYC bound to glutathione beads was preincubated with the indicated compound or vehicle […]. As a negative control, empty beads, i.e., not loaded with GST-MYC, were used. The formed complex was eluted with glutathione, while the amount of bound MAX (indicating the amount of the generated complex) was assessed by Western blotting using anti-MAX antibodies (Abcam) and quantified based on the image J free software. All assays were carried out at least three independent times.

Data set [5] relates to A549 cells. As to the kind of experiment: Cell uptake / intracellular concentration by LC-MS/MS, A549. Type of data set: in vitro ADME, human. Particulars: A549, 24 h incubation with 10 μM. The protocol: as §1
Cells were plated in 24-well plates at a density of 2 × 10^5 cells/well. 24 h after seeding, cells were incubated with each PROTAC (10 μΜ) for certain time points (1 h, 4 h, 8 h, and 24 h). […] Samples were then reconstituted in 200 μL of initial mobile phase (100% A), and the intracellular accumulation of PROTACs was determined by LC-MS/MS analysis using Warfarin as a stable internal standard and PROTAC standards for the construction of analytical standard curves.
as §2

The text below walks through data of paper PMC11650737, “Developing MYC Degraders Bearing the Von Hippel–Lindau Ligand to Target the “Undruggable” MYC” (ACS Pharmacology & Translational Science, 2024).

Several values for one entry are separate records, joined by “and”; a condition that tells them apart may be missing. Equal entries are not always repeated. Entries after “also recorded” stand apart in the source; their conditions may differ.

With `Cc1ncsc1-c1ccc(CNC(=O)[C@@H]2C[C@@H](O)CN2C(=O)[C@@H](NC(=O)CCC(=O)NCCCOc2ccc(-c3cc(C(F)(F)F)nn3C)c(O)c2-c2cc(C(F)(F)F)cc(C(F)(F)F)c2)C(C)(C)C)cc1` [CSI86], the “IC50 (antiproliferative effect)” value in data set [1] was “inactive”. Also, the Uptake by cells in data set [2] is 26% and 26 ± 5%; in data set [5], 10% and 10 ± 2%. Moreover, the intracellular concentration in data set [2] (corresponding to the uptake) worked out at 2.6 µM. Also, in data set [3], the “stability in cell medium (DMEM)” value is reported as “stable”. Further, the “inhibition of MYC:MAX complex formation (binding of His-MAX to GST-MYC)” value in data set [4] is reported as “no effect on MYC/MAX dimerization”.
Consider `Cc1ncsc1-c1ccc(CNC(=O)[C@@H]2C[C@@H](O)CN2C(=O)[C@@H](NC(=O)CCCC(=O)NCCCOc2ccc(-c3cc(C(F)(F)F)nn3C)c(O)c2-c2cc(C(F)(F)F)cc(C(F)(F)F)c2)C(C)(C)C)cc1` [CSI107], for which, in data set [4], the “inhibition of MYC:MAX complex formation (binding of His-MAX to GST-MYC)” value was “inhibited the binding of HisMAX to MYC; also recorded: inhibits dimerization”.
